What all share (type): functional
Assay [1] deals with Mycobacterium tuberculosis. The assay can be described thus: Antimycobacterial activity against Mycobacterium tuberculosis H37Rv under dormancy-inducing hypoxic condition.
Assay [2] concerns Mycolicibacterium smegmatis. Nature of the assay: Antimycobacterial activity against Mycobacterium smegmatis under aerobic condition.
The subject of assay [3] is Mycolicibacterium smegmatis. The assay can be described thus: Antimycobacterial activity against Mycobacterium smegmatis under dormancy-inducing hypoxic condition.
The subject of assay [4] is Mycobacterium tuberculosis. Nature of the assay: Antimycobacterial activity against Mycobacterium tuberculosis H37Rv under aerobic condition.

SMILES strings stand for the structures. Values after ≈ are worked out from the molar mass of the structure shown. *1 amine or outer side, *2 acyl side, *3 side chain or, on linkers, in order; H or OH if unused. Where a SMILES comes first, the peptide text is derived from it. [ ]: non-standard residue; d: D form. The star is where a group is joined. X2 = CCC(=O)C[C@@H](O)C[C@@H](C)C[C@H](N[*:1])C(=O)[*:2]; X1 = CCC(=O)/C=C/C[C@@H](C)C[C@H](N[*:1])C(=O)[*:2]; Alaψ(CH2NMeCH2CH2OH) = C[C@@H](CN(C)CCO)N*; Decanoyl(2R-Me) = CCCCCCCC[C@@H](C)C(=O)*; Aib = CC(C)(N)C(=O)O Some results are limits rather than exact numbers.

Take `NNC(=O)c1ccncc1` [ISONIAZID]: the MIC in assay [1] was greater than 100 mg/L; in assay [2], 2.5 mg/L (≈ 18.2 µM); in assay [3] it was 25 mg/L (≈ 182 µM); in assay [4], 0.05 mg/L (≈ 0.365 µM).

Consider `CCCCCCCC[C@@H](C)C(=O)N1CCC[C@H]1C(=O)N[C@@H](C[C@H](C)C/C=C/C(=O)CC)C(=O)NC(C)(C)C(=O)NC(C)(C)C(=O)N[C@H](C(=O)N[C@H](C(=O)NC(C)(C)C(=O)NC(C)(C)C(=O)N[C@@H](C)CN(C)CCO)C(C)C)[C@@H](C)CC` [TRICHODERIN A1] ({Decanoyl(2R-Me)}-P[X1][Aib][Aib]IV[Aib][Aib]-{Alaψ(CH2NMeCH2CH2OH)}), for which the MIC in assay [1] turned out to be 2 mg/L (≈ 1.75 µM); in assay [2], 1.56 mg/L (≈ 1.36 µM); in assay [3], 1.56 mg/L (≈ 1.36 µM); in assay [4], 2 mg/L (≈ 1.75 µM).

Consider `CCCCCCCC[C@@H](C)C(=O)N1CCC[C@H]1C(=O)N[C@@H](C[C@H](C)C[C@H](O)CC(=O)CC)C(=O)NC(C)(C)C(=O)NC(C)(C)C(=O)N[C@H](C(=O)N[C@H](C(=O)NC(C)(C)C(=O)NC(C)(C)C(=O)N[C@@H](C)CN(C)CCO)C(C)C)[C@@H](C)CC` [TRICHODERIN A] ({Decanoyl(2R-Me)}-P[X2][Aib][Aib]IV[Aib][Aib]-{Alaψ(CH2NMeCH2CH2OH)}), for which the MIC came to 0.12 mg/L (≈ 0.103 µM) in assay [1], 0.1 mg/L (≈ 0.0859 µM) in assay [2], 0.1 mg/L (≈ 0.0859 µM) in assay [3] and 0.12 mg/L (≈ 0.103 µM) in assay [4].

`CCCCCCCC[C@@H](C)C(=O)N1CCC[C@H]1C(=O)N[C@@H](C[C@H](C)C[C@H](O)CC(=O)CC)C(=O)NC(C)(C)C(=O)NC(C)(C)C(=O)N[C@H](C(=O)N[C@H](C(=O)NC(C)(C)C(=O)NC(C)(C)C(=O)N[C@@H](C)CN(C)CCO)C(C)C)C(C)C` [TRICHODERIN B] ({Decanoyl(2R-Me)}-P[X2][Aib][Aib]VV[Aib][Aib]-{Alaψ(CH2NMeCH2CH2OH)}): the MIC in assay [1] was 0.13 mg/L (≈ 0.113 µM); in assay [2], 0.63 mg/L (≈ 0.548 µM); in assay [3] it was 0.63 mg/L (≈ 0.548 µM); in assay [4], 0.13 mg/L (≈ 0.113 µM).

In general, MIC refers to the least concentration at which growth counts as inhibited. Low values mean inhibition by little substance, high ones a need for much substance.
